In US20110319392A1, “Thiazole Sulfonamide And Oxazole Sulfonamide Kinase Inhibitors” (priority 2009, published 2011):

Key:
EGFR = target: T1, EGFR (Homo sapiens, UniProt P00533); assay: EGFR substrate phosphorylation assay (HTRF); type: biochemical
T1 construct: made in house; host or cells: baculovirus expression system
Description: (§1) Compounds of the present invention were tested for EGFR and ErbB-2 protein tyrosine kinase inhibitory activity in substrate phosphorylation assays using enzymes purified from a baculovirus expression system. Reagent production was conducted essentially as described in Brignola, P. S., et al, (2002) J. Biol. Chem. 277(2):1576-1585.
(§2) The method measures the ability of the isolated enzyme to catalyse the transfer of the gamma-phosphate from ATP onto the tyrosine residue of a biotinylated synthetic peptide referenced “Peptide C” in Brignola, P. S., et al, (2002) J. Biol. Chem. 277(2):1576-1585. The extent of tyrosine phosphorylation was measured using an anti-phosphotyrosine antibody, and quantified by homogenous time-resolved fluorescence (HTRF).
(§3) Reactions were performed in black 384-well polystyrene flat-bottom plates in a final volume of 20 μL. Assays were performed by adding 10 μL of each of the following solutions, Substrate Mix and Enzyme Mix: The Substrate Mix contained 100 mM 3-[N-morpholino]propanesulfonic acid (MOPS) (pH 7.5), 2 mM MnCl2, 20 μM ATP, 0.01% Tween-20, 0.1 mg/mL (BSA), 0.8 uM peptide substrate, and 1 mM dithiothreitol. The Enzyme Mix contained 100 mM MOPS (pH7.5); 0.01% Tween-20; 0.1 mg/mL BSA, and either 0.8 nM EGFR, 10 nM ErbB2, or 1 nM ErbB4. The Enzyme Mix was added to the compound plates and the plates were incubated at 20° C. for 1 hr. The reactions were then started by adding the Substrate Mix.
(§4) After initiating the reaction with the method described above, the reactions were allowed to proceed for 90 minutes at 20° C. The reactions were then terminated by the addition of 20 μL 100 mM EDTA to each well. 40 μL/well of HTRF detection mix were added to the assay plates. The final concentrations of the detection reagents were: 100 mM HEPES (pH7.5), 0.1 mg/mL BSA, 15 nM streptavidin-labeled allophycocyanin (PerkinElmer), and 1 nM europium-labeled anti-phosphotyrosine antibody (Perkin Elmer). Assay plates were left unsealed and were counted in a Wallac Multilabel Counter 1420 (PerkinElmer).
(§5) Compounds under analysis were dissolved in dimethylsulfoxide (DMSO) to 1.0 mM and serially diluted 1 to 3 with DMSO through twelve dilutions. 1 μL of each concentration was transferred to the corresponding well of an assay plate. This creates a final compound concentration range from 0.00027 to 47.6 μM.
(§6) The data for dose responses were plotted as % Inhibition calculated with the data reduction formula 100*(1-(U1−C2)/(C1−C2)) versus concentration of compound where U1 is the unknown value, C1 is the average control value obtained for 4.76% DMSO, and C2 is the average control value obtained for 0.035 M EDTA. Data were fitted with a curve described by:
(§7) where Vmax is the upper asymptote, Y2 is the Y intercept, and K is the IC50. The results for each compound were recorded as pIC50s, calculated as follows: […]

ErbB2 = target: T2, ErbB2 (Homo sapiens, UniProt P04626); assay: ErbB-2 substrate phosphorylation assay (HTRF); type: biochemical
T2 construct: made in house; host or cells: baculovirus expression system
Description: as §1, §2, §3, §4, §5, §6, §7

B-Raf = B-Raf (Homo sapiens, UniProt P15056); assay: B-Raf Accelerated MEK ATPase assay (BRAMA), Method A or B; type: biochemical; details: Method B: final MEK 150 nM, single end point read
Description: Compounds of the present invention were tested for B-Raf protein serine kinase inhibitory activity in a B-Raf Accelerated MEK ATPase assay (BRAMA). The BRAMA assay is a high sensitivity assay which measures an intrinsic MEK-mediated ATP hydrolysis uncoupled from downstream ERK phosphorylation by coupling the formation of ADP to NADH oxidation through the enzymes pyruvate kinase and lactate dehydrogenase. When ADP production is initiated by addition of catalytic amounts of an activated Raf enzyme and non-phosphorylated MEK, one observes robust ADP production concomitant with Raf-mediated phosphorylation of MEK.
Method A: Specific details of the assay are disclosed in: C. Rominger, M. Schaber, E. May. Assay for B-Raf Activity Based on Intrinsic MEK ATPase Activity. Statutory Invention Registration 11/084,993 (March, 2005). Method B: The method is the same as method A, but includes the following changes: 1) the assay was performed with a final MEK concentration of 150 nM and 2) the assay was read as single end point instead of a kinetic read.

Colo205 tumor cells = assay: Cell growth inhibition assay (CellTiter-Glo), Colo205; type: cell-based, Human; details: Homo sapiens, COLO 205, 72 h; 3 days incubation
Description: (§8) Human breast tumor cells (BT474) were cultured in RPMI (Mediatech […]), containing 10% FBS (JRH Biosciences 12176) and 1% penicillin-streptomycin (Invitrogen 15140). Human head and neck tumor cells (HN5) were cultured in high glucose DMEM (Mediatech 50-013-PB) containing 10% FBS and 1% penicillin-streptomycin. Human colon tumor cells (Colo205) were cultured in RPMI (Mediatech 50-020-PB) containing 10% FBS and 1% penicillin-streptomycin. Human melanoma cancer cells (SK-MEL-28) were cultured in EMEM with nonessential amino acids (Mediatech 50-011-PB) containing 10% FBS, 1% sodium pyruvate (JT Baker 3354-04), and 1% penicillin-streptomycin. Human melanoma cancer cells (A375P F11s) were cultured in RPMI (Mediatech 50-020-PB) containing 10% FBS, 1% sodium pyruvate, and 1% penicillin-streptomycin. Human colon cancer cells (HT-29) were cultured in high glucose DMEM (Mediatech 50-013-PB) containing 10% FBS and 1% penicillin-streptomycin. Human melanoma cancer cells (SK-MEL-3) were cultured in McCoy's 5A (50-025-PB) containing 15% FBS, and 1% penicillin-streptomycin. All cell lines were maintained at 37° C. in a humidified 5% CO2, 95% air incubator. Cells were harvested using trypsin/EDTA (Invitrogen 25200), counted using a haemocytometer, and plated. For 96-well assays (using white full-area NUNC plates cat. #136102), cells were plated in 105 μL at the following densities (cells/well): HNS, 500; Colo 205, 500; SK-MEL-28, 500; A375P F11s, 500; HT-29, 500; SK-MEL-3, 500; and BT474, 3000. For 384-well assays (white full-area NUNC plates, cat. #781080), cells were plated in 48 μL at the following densities (cells/well): HNS, 500; Colo205, 500; SK-MEL-28, 500; A375P F11s, 500; HT-29, 500; SK-MEL-3, 500; and BT474, 2000.
(§9) The next day, compounds were diluted as follow: For 96-well assays, 13.5 μL of compound in DMSO were diluted using nine (9) serial 1:3 dilutions of 4.5 μL in 9 of DMSO. Medium (270 μL/well of RPMI with 10% FBS and 1% penicillin-streptomycin) was added to the plates. Aliquots (7 μL) were added to cells in the final assay giving a final DMSO concentration of 0.2%. For 384-well assays, 15 μL of compound in DMSO were diluted using nine (9) serial 1:3 dilutions of 5 μL in 10 μL of DMSO, followed by a further dilution of 5 μL of compound with 95 μL of medium, of which 2 μL were added to cells in the final assay giving a final DMSO concentration of 0.2%. Cells were incubated at 37° C., 5% CO2 for 3 days.
(§10) Total ATP was measured (as a surrogate estimate of cell number) using CellTiter-Glo® reagent (Promega G7571). Briefly, plates were removed from the incubator and allowed to equilibrate to room temperature for 30 minutes. CellTiter-Glo® (25 μL or 55 μL for 384-well or 96-well assays, respectively) reagent was added to each well and plates were shaken on an orbital plate shaker for 2 minutes. Plates were incubated without shaking for a further 30 minutes and read on an LJL Analyst GT reader in luminometer mode with an integration time of 0.5 seconds per well. Percent inhibition of cell growth was calculated relative to DMSO vehicle-treated control wells. Concentration of compound required to give 50% inhibition of vehicle-treated control cell growth (IC50) was interpolated using a 4-parameter fit for determining IC50 using the following equation: Y=A +((B−A)/(1+((C/X)̂D))) where […].

SK-MEL-28 tumor cells = assay: Cell growth inhibition assay (CellTiter-Glo), SK-MEL-28; type: cell-based, Human; details: Homo sapiens, SK-MEL-28, 72 h; 3 days incubation
Description: as §8, §9, §10

Chain of B-Raf (P15056 whole entry): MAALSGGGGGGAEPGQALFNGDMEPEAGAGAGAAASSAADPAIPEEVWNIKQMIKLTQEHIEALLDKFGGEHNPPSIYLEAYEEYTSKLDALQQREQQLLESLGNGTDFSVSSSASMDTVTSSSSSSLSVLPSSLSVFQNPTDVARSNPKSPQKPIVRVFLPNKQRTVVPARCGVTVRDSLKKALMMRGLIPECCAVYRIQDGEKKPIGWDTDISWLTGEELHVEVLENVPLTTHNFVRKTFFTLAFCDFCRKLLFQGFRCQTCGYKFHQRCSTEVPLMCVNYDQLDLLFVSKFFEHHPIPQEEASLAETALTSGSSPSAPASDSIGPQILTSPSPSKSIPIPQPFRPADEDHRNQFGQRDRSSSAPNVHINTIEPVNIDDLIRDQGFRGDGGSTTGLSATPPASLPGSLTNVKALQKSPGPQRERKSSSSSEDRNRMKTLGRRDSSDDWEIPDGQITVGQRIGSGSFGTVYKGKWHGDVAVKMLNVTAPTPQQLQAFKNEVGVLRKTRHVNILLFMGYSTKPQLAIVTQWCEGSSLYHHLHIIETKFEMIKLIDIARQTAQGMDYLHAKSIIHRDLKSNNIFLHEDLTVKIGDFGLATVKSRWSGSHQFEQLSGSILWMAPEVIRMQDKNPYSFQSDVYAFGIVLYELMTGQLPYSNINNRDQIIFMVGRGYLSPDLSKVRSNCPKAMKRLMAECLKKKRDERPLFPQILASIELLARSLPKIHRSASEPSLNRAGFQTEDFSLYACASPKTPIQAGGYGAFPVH
T2 sequence (P04626 23-1255): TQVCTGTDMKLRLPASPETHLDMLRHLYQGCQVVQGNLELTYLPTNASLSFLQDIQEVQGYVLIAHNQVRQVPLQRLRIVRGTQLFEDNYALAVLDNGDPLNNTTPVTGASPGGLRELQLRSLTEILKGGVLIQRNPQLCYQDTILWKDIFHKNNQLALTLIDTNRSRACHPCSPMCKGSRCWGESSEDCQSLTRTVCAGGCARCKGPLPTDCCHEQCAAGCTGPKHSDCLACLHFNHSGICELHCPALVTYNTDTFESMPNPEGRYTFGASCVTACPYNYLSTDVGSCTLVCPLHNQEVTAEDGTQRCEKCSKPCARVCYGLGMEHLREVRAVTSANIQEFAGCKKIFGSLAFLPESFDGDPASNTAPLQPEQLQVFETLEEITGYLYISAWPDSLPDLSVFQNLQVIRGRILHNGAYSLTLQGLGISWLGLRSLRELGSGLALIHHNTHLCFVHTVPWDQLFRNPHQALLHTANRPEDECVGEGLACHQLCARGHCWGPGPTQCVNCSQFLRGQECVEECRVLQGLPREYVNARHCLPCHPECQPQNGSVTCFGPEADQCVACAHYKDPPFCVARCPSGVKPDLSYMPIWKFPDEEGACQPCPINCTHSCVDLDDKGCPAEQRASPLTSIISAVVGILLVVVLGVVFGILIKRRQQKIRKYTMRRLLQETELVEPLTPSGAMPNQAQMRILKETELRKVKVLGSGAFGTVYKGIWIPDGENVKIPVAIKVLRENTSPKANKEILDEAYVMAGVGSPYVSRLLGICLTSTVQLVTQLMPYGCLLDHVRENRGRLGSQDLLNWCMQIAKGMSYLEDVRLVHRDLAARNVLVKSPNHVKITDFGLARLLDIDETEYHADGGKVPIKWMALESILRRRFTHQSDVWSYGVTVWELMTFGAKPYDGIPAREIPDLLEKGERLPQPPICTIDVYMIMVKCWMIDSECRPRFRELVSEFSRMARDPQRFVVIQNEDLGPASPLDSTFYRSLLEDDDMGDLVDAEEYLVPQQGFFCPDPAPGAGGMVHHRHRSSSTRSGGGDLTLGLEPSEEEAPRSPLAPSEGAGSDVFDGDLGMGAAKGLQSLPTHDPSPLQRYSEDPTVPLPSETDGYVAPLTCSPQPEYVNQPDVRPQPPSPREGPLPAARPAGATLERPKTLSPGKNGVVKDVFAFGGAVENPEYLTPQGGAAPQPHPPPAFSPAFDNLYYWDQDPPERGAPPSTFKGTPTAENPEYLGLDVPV
T1 sequence (P00533 25-1210): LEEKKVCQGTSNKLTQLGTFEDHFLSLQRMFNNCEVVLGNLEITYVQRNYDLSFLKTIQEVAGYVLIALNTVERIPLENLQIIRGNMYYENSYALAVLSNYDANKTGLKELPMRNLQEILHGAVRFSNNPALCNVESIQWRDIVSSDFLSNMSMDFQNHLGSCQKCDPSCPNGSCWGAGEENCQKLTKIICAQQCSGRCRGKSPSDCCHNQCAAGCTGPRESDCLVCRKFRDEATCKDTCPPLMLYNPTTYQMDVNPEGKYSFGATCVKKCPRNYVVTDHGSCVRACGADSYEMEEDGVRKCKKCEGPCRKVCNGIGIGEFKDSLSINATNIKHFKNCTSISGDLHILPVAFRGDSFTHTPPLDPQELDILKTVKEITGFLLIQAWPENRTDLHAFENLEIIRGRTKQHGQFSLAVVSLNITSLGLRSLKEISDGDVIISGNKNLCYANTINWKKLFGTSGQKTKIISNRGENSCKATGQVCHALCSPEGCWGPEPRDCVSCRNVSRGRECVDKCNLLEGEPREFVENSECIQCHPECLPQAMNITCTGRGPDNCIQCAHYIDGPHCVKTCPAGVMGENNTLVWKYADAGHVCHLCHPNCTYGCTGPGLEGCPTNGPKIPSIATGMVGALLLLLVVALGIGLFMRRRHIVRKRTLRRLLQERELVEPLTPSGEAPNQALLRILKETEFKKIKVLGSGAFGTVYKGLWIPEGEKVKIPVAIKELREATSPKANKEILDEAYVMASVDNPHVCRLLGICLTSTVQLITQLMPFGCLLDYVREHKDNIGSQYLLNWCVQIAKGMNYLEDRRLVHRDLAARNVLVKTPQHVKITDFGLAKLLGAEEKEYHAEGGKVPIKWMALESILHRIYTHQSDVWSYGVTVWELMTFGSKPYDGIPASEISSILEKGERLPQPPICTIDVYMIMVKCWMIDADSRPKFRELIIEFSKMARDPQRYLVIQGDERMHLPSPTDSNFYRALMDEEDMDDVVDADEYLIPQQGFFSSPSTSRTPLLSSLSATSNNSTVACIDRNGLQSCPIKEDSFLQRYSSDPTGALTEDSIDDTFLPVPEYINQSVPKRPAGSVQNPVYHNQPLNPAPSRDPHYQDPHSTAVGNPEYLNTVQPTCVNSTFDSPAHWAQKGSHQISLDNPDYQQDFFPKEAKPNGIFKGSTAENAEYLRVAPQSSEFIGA

SMILES | IC50 (EGFR) [µM] | IC50 (ErbB2) [µM] | IC50 (B-Raf) [µM] | IC50 (Colo205 tumor cells) [µM] | IC50 (SK-MEL-28 tumor cells) [µM]
Nc1nc(-c2ccc(F)c(NS(=O)(=O)c3c(F)cccc3F)c2)c(-c2ccnc(Nc3ccc(N4CCOCC4)nc3)n2)s1 [Example 64] | 0.1 to 1 | < 0.1 | < 0.1 | > 1 | > 1
CCc1nc(-c2ccc(F)c(NS(=O)(=O)c3ccccc3)c2)c(-c2ccnc(Nc3ccc(N4CCN(CCS(C)(=O)=O)CC4)c(F)c3)n2)s1 [Example 67] | > 1 | 0.1 to 1 | 0.1 to 1 | 0.1 to 1 | 0.1 to 1
CCc1nc(-c2cccc(CNS(=O)(=O)c3ccccc3)c2)c(-c2ccnc(Nc3ccc(N4CCN(C(C)=O)CC4)nc3)n2)s1 [Example 68] | 0.1 to 1 | 0.1 to 1 | 0.1 to 1 | > 1 | > 1
CCc1nc(-c2ccc(F)c(NS(=O)(=O)c3ccccc3)c2)c(-c2ccnc(Nc3ccc(N4CCN(C(C)C)CC4)cc3OC)n2)s1 [Example 69] | 0.1 to 1 | 0.1 to 1 | 0.1 to 1 | > 1 | > 1
COc1cc(C)ccc1S(=O)(=O)Nc1cccc(-c2nc(C(C)C)sc2-c2ccnc(Nc3ccc(N4CCN(C(C)=O)CC4)nc3)n2)c1 [Example 76] | > 1 | > 1 | 0.1 to 1 | > 1 | > 1
CC(C)c1nc(-c2cccc(NS(=O)(=O)Cc3ccccc3)c2)c(-c2ccnc(Nc3ccc(N4CCOCC4)c(F)c3)n2)s1 [Example 86] | > 1 | > 1 | 0.1 to 1 | > 1 | > 1
COc1c(Nc2nccc(-c3sc(C(C)C)nc3-c3cccc(NS(=O)(=O)c4c(F)cccc4F)c3)n2)ccc(N2CCN(CCS(C)(=O)=O)CC2)c1C [Example 90] | > 1 | > 1 | < 0.1 | 0.1 to 1 | 0.1 to 1
CC(C)(F)c1nc(-c2ccc(F)c(NS(=O)(=O)c3c(F)cccc3F)c2)c(-c2ccnc(Nc3ccc(N4CCOCC4)nc3)n2)s1 [Example 103] | > 1 | > 1 | 0.1 to 1 | 0.1 to 1 | 0.1 to 1
COc1ccc(S(=O)(=O)Nc2cccc(-c3nc(C(C)C)sc3-c3ccnc(Nc4ccc(N5CCOCC5)nc4)n3)c2)cc1OC [Example 104] | > 1 | > 1 | 0.1 to 1 | 0.1 to 1 | > 1
Cc1cc(S(=O)(=O)Nc2cccc(-c3nc(C(C)C)sc3-c3ccnc(Nc4ccc(N5CCOCC5)nc4)n3)c2)c(F)cc1Cl [Example 105] | > 1 | 0.1 to 1 | 0.1 to 1 | 0.1 to 1 | > 1
COc1cc(N2CCC(CCS(C)(=O)=O)CC2)c(C)cc1Nc1nccc(-c2sc(C(C)C)nc2-c2ccnc(NS(=O)(=O)c3c(F)cccc3F)c2)n1 [Example 108] | > 1 | > 1 | < 0.1 | 0.1 to 1 | > 1
COC(=O)c1ccc(S(=O)(=O)Nc2cccc(-c3nc(C(C)C)sc3-c3ccnc(Nc4ccc(N5CCOCC5)nc4)n3)c2)o1 [Example 110] | > 1 | > 1 | < 0.1 | 0.1 to 1 | > 1
Cc1ccc(-c2nc(C(C)C)sc2-c2ccnc(Nc3ccc(N4CCOCC4)nc3)n2)cc1NS(=O)(=O)c1c(F)cccc1F [Example 111] | 0.1 to 1 | 0.1 to 1 | 0.1 to 1 | > 1 | > 1
COc1cc2c(cc1Nc1nccc(-c3sc(C(C)C)nc3-c3cccc(NS(=O)(=O)c4c(F)cccc4F)c3)n1)N(C(=O)CN(C)C)CC2 [Example 118] | 0.1 to 1 | 0.1 to 1 | 0.1 to 1 | > 1 | > 1
COc1cc(N2CCN(CCS(C)(=O)=O)CC2)c(C)cc1Nc1nccc(-c2sc(C(C)C)nc2-c2cccc(NS(=O)(=O)c3c(F)cccc3F)c2F)n1 [Example 125] | < 0.1 | < 0.1 | < 0.1 | 0.1 to 1 | < 0.1
